# Experimental data as given in patent publication US5306812A, “Immunoglobulin-binding polypeptides” (The Regents of the University of California, priority 1990, dated 1994).
# Where no end group is shown, it is not given here.
# What was measured:
# [1] = system: murine monoclonal antibodies; assay: ELISA: binding of solid-phase CD4 peptide to murine monoclonal antibodies; parameters: species or system mouse; details: compared with p21-38 and p21-49 or with background
# Experimental: The plate was maintained for six hours at 37 degrees (37° C.) on a rotating platform to allow the peptide to adhere to the wells and form solid supports. After aspirating the excess liquid from the wells, 200 ul of washing solution containing TWEEN 20 (0.5% polyoxyethylenesorbitan monolaurate) in phosphate buffered saline (0.5M sodium chloride, 0.01M sodium phosphate at pH 7.2; PBS) was admixed to each well and immediately removed by aspiration. After aspirating the excess liquid from the wells 200 ul of blocking solution consisting of 1% bovine serum albumin (BSA) in phosphate buffered saline at pH 7.4 was admixed to each well, and the wells maintained at room temperature for one hour. The wells were washed with 200 ul a solution containing 0.5% TWEEN-20 (Polyoxyethylenesorbitan monolaurate) in PBS and the wash solution immediately removed by aspiration.
# A first antibody, either a murine monoclonal antibody or a purified human myeloma protein was diluted to approximately 80 ug per ml in binding buffer consisting of 1% BSA and 0.5% TWEEN 20 (polyoxyethylenesorbitan monolaurate) in PBS and then various amounts, depending on the final antibody concentration desired, were admixed to each well and the wells maintained at room temperature for 3 or 4 hours in a humidified atmosphere. The wells were then washed 6 times with washing buffer and the excess liquid removed by aspiration.
# 50 ul of a horse radish peroxidase (HRP)-conjugated anti-mouse Ig secondary antibody (Cappel, Cochranvile, Pa.) or HRP-conjugated antihuman Ig (Sigma, St. Louis, Mo.) diluted 1:10,000 and 1:1,500, respectively, in binding buffer supplemented with 15% heat inactivated calf serum, was then admixed to each well. The wells were maintained for 1 hour at room temperature and then washed several times with washing buffer. 100 ul of freshly prepared substrate, prepared by adding 4 mg of 0-phenylendiamine and 4 ul of a 30% solution of hydrogen peroxide to 10 ml of a buffer containing 0.1M citric acid and 0.2M dibasic sodium phosphate at pH 5.0. were admixed to each well. The wells were then maintained (incubated) for 30 minutes at room temperature in the dark. The reaction was stopped by adding 25 ul per well of a stop buffer consisting of aqueous 4N H2 SO4. The amount of colored reaction product produced was determined by measuring the absorbance at 492 nanometers (nm).
# Each peptide's ability to bind mouse monoclonal antibodies was determined using the ELISA assay described in Example 1B.
# [2] = system: binding of peptide p21-49 to immunoglobulin (monoclonal antibodies 62 and OKT4A); assay: ELISA: binding of p21-49 to immunoglobulins in the presence of dextran sulfate; parameters: species or system murine; details: dextran sulfate 0.01 ug/ml to 50 ug/ml; both monoclonal antibody 62 (anti-thyroglobulin) and OKT4A (anti-CD4)
# Experimental: The binding of peptide p21-49 to various immunoglobulins was determined in the presence of varying concentration of dextran sulfate. Briefly, peptide p21-49 was affixed to the wells of microliter plates as described in Example 1B. Dextran sulfate was then admixed to individual wells at a final concentration ranging from 0.01 ug/ml to 50 ug/ml. The first antibody, either a murine monoclonal antibody immunospecific for thyroglobulin or a murine monoclonal antibody immunospecific for CD4 protein was diluted to approximately 4 ug/ml in binding buffer and admixed to each well. The wells were maintained at room temperature for 4 hours in a humidified atmosphere. The wells were then washed 6 times with washing buffer and the excess liquid removed by aspiration. The assay was completed according to Example 1B.
inhibition of peptide p21-49 binding to immunoglobulin (FIG. 7) [2],Substance,relative binding of CD4 peptides (FIG. 15) [1]
,"KSIQFHWKNSNQIKILG [p 22-38, KSIQ FHWKN SNQIK ILG]",comparable binding with that of p21-38 and p21-49
inhibits the binding,dextran sulfate,
,"IQFHWKNSNQIKILG [p 24-38, IQ FHWKN SNQIK ILG]",comparable binding with that of p21-38 and p21-49
,"SIQFHWKNSNQIKILG [p 23-38, SIQ FHWKN SNQIK ILG]",comparable binding with that of p21-38 and p21-49
,"KKSIQFHWKNSNQIKIL [p 21-37, KKSIQ FHWKN SNQIK IL]",comparable binding with that of p21-38 and p21-49
